# From US20250122183A1 (Pfizer Inc., priority 2023, published 2025)
# What was measured:
# Assay type in all cases: biochemical
# KAT5 Full length enzyme = KAT5 Full length enzyme (Homo sapiens (Human), UniProt Q92993); assay: KAT5 assay (SAMDI-MS acetylation of H4 1-21 peptide); settings: Morrison equation fit; replicate number in parentheses; read-out: KAT5 Ki (nM) (replicate number)
# KAT6A Full length enzyme = KAT6A Full length enzyme (Homo sapiens (Human), UniProt Q92794); assay: KAT6A assay (SAMDI-MS acetylation of H3 1-21 peptide); settings: Morrison equation fit; replicate number in parentheses; read-out: KAT6A Ki (nM) (replicate number)
# KAT6A Full length enzyme, sequence (Q92794 other isoform, or with tags, fused parts or gaps): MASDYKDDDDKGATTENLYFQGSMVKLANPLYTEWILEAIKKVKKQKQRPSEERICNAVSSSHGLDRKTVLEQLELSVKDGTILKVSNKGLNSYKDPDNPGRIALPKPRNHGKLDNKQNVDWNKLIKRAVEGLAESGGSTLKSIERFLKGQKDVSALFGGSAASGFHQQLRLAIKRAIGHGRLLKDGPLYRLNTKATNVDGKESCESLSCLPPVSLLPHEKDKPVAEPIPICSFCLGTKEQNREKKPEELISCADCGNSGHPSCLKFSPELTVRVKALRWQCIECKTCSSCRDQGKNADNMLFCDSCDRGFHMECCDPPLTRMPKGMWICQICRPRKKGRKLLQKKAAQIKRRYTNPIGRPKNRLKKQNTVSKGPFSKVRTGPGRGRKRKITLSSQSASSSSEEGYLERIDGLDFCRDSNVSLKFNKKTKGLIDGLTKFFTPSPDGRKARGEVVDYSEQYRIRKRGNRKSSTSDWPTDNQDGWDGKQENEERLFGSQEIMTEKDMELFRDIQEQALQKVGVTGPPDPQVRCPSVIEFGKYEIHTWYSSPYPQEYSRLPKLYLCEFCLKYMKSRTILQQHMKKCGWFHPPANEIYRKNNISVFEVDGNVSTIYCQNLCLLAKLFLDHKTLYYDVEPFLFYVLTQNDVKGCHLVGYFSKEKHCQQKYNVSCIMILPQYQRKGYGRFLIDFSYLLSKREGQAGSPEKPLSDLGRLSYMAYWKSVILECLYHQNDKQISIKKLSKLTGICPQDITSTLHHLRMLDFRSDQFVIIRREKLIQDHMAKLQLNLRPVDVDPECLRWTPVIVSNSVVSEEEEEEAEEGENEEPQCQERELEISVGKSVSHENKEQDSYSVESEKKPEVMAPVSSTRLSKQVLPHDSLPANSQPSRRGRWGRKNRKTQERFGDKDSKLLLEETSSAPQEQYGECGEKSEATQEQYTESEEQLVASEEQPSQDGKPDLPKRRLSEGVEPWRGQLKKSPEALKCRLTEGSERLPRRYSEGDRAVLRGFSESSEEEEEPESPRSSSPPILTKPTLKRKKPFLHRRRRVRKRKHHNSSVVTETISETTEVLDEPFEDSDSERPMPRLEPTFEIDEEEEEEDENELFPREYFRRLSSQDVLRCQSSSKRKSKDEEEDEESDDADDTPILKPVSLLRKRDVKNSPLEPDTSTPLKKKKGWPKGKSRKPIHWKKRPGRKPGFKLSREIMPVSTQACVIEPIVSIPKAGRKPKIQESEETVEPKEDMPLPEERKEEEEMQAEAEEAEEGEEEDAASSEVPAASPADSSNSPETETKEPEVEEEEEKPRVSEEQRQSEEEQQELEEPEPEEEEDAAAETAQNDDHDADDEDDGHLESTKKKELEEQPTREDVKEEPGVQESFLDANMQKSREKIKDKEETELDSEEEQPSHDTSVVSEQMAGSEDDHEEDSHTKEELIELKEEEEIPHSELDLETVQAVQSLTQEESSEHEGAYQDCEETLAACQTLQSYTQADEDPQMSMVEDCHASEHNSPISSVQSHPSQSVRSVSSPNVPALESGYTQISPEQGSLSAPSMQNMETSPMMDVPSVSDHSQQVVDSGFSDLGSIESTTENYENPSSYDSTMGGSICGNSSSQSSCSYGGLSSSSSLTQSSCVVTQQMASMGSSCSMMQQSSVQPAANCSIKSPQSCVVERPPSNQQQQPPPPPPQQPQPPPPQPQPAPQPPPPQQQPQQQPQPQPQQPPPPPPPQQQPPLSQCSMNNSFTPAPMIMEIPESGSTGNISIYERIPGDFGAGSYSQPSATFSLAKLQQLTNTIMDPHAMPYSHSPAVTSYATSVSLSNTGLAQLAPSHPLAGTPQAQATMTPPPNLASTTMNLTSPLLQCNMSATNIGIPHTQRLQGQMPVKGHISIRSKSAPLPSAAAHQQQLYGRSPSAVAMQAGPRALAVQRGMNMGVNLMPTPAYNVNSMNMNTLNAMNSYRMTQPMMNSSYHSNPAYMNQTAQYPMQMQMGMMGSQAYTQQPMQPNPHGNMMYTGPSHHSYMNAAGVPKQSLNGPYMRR
# [1] = molecular target: KAT7+JADE1+EAF6+ING5 4 protein complex (Homo sapiens (Human), UniProt O95251); assay: KAT7 JADE1 assay (SAMDI-MS acetylation of H3 1-21 peptide); settings: Morrison equation fit; replicate number in parentheses; read-out: KAT7 JADE1 Ki (nM) (replicate number)
# KAT8 Full length enzyme = KAT8 Full length enzyme (Homo sapiens (Human), UniProt Q9H7Z6); assay: KAT8 assay (SAMDI-MS acetylation of H3 1-21 peptide); settings: Morrison equation fit; replicate number in parentheses; read-out: KAT8 Ki (nM) (replicate number)
# KAT8 Full length enzyme, sequence (Q9H7Z6 whole entry): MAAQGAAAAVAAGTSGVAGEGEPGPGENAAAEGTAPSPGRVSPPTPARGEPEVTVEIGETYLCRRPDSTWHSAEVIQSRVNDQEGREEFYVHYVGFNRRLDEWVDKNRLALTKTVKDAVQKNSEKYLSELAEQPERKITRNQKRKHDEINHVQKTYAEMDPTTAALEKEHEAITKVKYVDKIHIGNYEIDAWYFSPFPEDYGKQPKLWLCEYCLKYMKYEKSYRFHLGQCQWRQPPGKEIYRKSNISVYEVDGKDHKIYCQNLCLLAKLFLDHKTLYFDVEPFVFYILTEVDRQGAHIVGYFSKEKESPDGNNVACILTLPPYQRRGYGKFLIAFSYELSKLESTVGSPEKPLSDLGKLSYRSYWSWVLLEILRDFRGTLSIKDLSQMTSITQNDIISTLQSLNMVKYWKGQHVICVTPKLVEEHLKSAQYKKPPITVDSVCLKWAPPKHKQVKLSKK
# [2] = molecular target: KAT7+BRPF2+EAF6+ING5 4 protein complex (Homo sapiens (Human), UniProt O95251); assay: KAT7 BRPF2 assay (SAMDI-MS acetylation of H3 1-21 peptide); settings: Morrison equation fit; replicate number in parentheses; read-out: KAT7 BRPF2 Ki (nM) (replicate number)
# [3] = molecular target: KAT7+BRPF1+EAF6+ING5 4 protein complex (Homo sapiens (Human), UniProt O95251); assay: KAT7 BRPF1 assay (SAMDI-MS acetylation of H3 1-21 peptide); settings: Morrison equation fit; replicate number in parentheses
# KAT5 Full length enzyme, sequence (Q92993 whole entry): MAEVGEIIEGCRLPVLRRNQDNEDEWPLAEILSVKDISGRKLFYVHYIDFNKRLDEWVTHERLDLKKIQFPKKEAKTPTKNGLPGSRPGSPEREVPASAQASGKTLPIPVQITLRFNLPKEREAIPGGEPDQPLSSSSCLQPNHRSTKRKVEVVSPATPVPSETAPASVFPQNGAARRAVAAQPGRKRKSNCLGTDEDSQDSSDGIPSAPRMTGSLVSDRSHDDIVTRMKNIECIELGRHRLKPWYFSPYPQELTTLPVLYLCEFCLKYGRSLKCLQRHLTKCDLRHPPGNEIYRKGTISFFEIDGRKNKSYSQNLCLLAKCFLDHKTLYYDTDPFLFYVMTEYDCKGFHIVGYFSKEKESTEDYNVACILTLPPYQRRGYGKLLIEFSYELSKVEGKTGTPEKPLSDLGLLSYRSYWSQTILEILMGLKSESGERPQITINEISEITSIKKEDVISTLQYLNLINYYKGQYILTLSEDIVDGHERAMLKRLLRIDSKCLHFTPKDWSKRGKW
smiles,measurement,setting,value
"COc1cccc(OC)c1S(=O)(=O)Nc1noc2cc(Nc3cc[nH]n3)cc(OC)c12 [Example 01, 2,6-Dimethoxy-N-{4-methoxy-6-[(1H-pyrazol-3-yl)amino]-1,2-benzoxazol-3-yl}benzene-1-sulfonamide]",Ki,KAT5 Full length enzyme,441 nM
same,Ki,KAT6A Full length enzyme,0.4 nM
same,Ki,[1],131 nM
same,Ki,KAT8 Full length enzyme,455 nM
same,Ki,[2],37 nM
same,Ki,[3],37.7 nM
"CCc1cc(Nc2cc3onc(NS(=O)(=O)c4c(OC)cccc4OC)c3cc2OC)[nH]n1 [Example 02, N-{6-[(3-ethyl-1H-pyrazol-5-yl)amino]-5-methoxy-1,2-benzoxazol-3-yl}-2,6-dimethoxybenzene-1-sulfonamide]",Ki,KAT5 Full length enzyme,305 nM
same,Ki,KAT6A Full length enzyme,1.1 nM
same,Ki,[1],19.5 nM
same,Ki,KAT8 Full length enzyme,2270 nM
same,Ki,[2],4.8 nM
same,Ki,[3],3.5 nM
"COc1cc2c(NS(=O)(=O)c3c(OC)cccc3OC)noc2cc1Nc1cc[nH]n1 [Example 03, 2,6-Dimethoxy-N-{5-methoxy-6-[(1H-pyrazol-3-yl)amino]-1,2-benzoxazol-3-yl}benzene-1-sulfonamide]",Ki,KAT5 Full length enzyme,138 nM
same,Ki,KAT6A Full length enzyme,0.5 nM
same,Ki,[1],105 nM
same,Ki,KAT8 Full length enzyme,861 nM
same,Ki,[2],43.6 nM
same,Ki,[3],40.6 nM
"COc1cc2c(NS(=O)(=O)c3c(OC)cccc3OC)noc2cc1Nc1ccn(C)n1 [Example 04, 2,6-Dimethoxy-N-{5-methoxy-6-[(1-methyl-1H-pyrazol-3-yl)amino]-1,2-benzoxazol-3-yl}benzene-1-sulfonamide]",Ki,KAT5 Full length enzyme,367 nM
same,Ki,KAT6A Full length enzyme,0.7 nM
same,Ki,[1],251 nM
same,Ki,KAT8 Full length enzyme,1230 nM
same,Ki,[2],57.2 nM
same,Ki,[3],67.2 nM
"COc1cc2c(NS(=O)(=O)c3ccccc3OC)noc2cc1Nc1cc(C)n[nH]1 [Example 06, 2-Methoxy-N-{5-methoxy-6-[(3-methyl-1H-pyrazol-5-yl)amino]-1,2-benzoxazol-3-yl}benzene-1-sulfonamide]",Ki,KAT5 Full length enzyme,300 nM
same,Ki,KAT6A Full length enzyme,0.8 nM
same,Ki,[1],148 nM
same,Ki,KAT8 Full length enzyme,> 13000 nM
same,Ki,[2],50.5 nM
same,Ki,[3],47.1 nM
"COc1ccccc1S(=O)(=O)Nc1noc2cc(Nc3cc[nH]n3)cc(OC)c12 [Example 09, 2-methoxy-N-{4-methoxy-6-[(1H-pyrazol-3-yl)amino]-1,2-benzoxazol-3-yl}benzene-1-sulfonamide]",Ki,KAT5 Full length enzyme,642 nM
same,Ki,KAT6A Full length enzyme,0.8 nM
same,Ki,[1],202 nM
same,Ki,KAT8 Full length enzyme,1190 nM
same,Ki,[2],90.7 nM
same,Ki,[3],51.8 nM
"COc1cccc(OC)c1S(=O)(=O)Nc1noc2cc(Nc3ncc[nH]3)cc(OC)c12 [Example 15, N-{6-[(1H-imidazol-2-yl)amino]-4-methoxy-1,2-benzoxazol-3-yl}-2,6-dimethoxybenzene-1-sulfonamide]",Ki,KAT5 Full length enzyme,1330 nM
same,Ki,KAT6A Full length enzyme,1.2 nM
same,Ki,[1],256 nM
same,Ki,KAT8 Full length enzyme,1320 nM
same,Ki,[2],100 nM
same,Ki,[3],67.8 nM
"COc1cc2c(NS(=O)(=O)c3ccccc3OC)noc2cc1Nc1cc[nH]n1 [Example 22, 2-methoxy-N-{5-methoxy-6-[(1H-pyrazol-3-yl)amino]-1,2-benzoxazol-3-yl}benzene-1-sulfonamide]",Ki,KAT5 Full length enzyme,488 nM
same,Ki,KAT6A Full length enzyme,0.9 nM
same,Ki,[1],300 nM
same,Ki,KAT8 Full length enzyme,1700 nM
same,Ki,[2],186 nM
same,Ki,[3],108 nM
"COc1cc2c(NS(=O)(=O)c3ccc(C)cc3OC)noc2cc1Nc1cc[nH]n1 [Example 23, 2-methoxy-N-{5-methoxy-6-[(1H-pyrazol-3-yl)amino]-1,2-benzoxazol-3-yl}-4-methylbenzene-1-sulfonamide]",Ki,KAT5 Full length enzyme,418 nM
same,Ki,KAT6A Full length enzyme,0.9 nM
same,Ki,[1],212 nM
same,Ki,KAT8 Full length enzyme,1060 nM
same,Ki,[2],95.2 nM
same,Ki,[3],36.7 nM
"COc1cc2c(NS(=O)(=O)c3cc(C)ccc3OC)noc2cc1Nc1cc[nH]n1 [Example 24, 2-methoxy-N-{5-methoxy-6-[(1H-pyrazol-3-yl)amino]-1,2-benzoxazol-3-yl}-5-methylbenzene-1-sulfonamide]",Ki,KAT5 Full length enzyme,236 nM
same,Ki,KAT6A Full length enzyme,0.9 nM
same,Ki,[1],285 nM
same,Ki,KAT8 Full length enzyme,440 nM
same,Ki,[2],182 nM
same,Ki,[3],88.5 nM
"COc1cc2c(NS(=O)(=O)c3cc(C(C)C)c(C)cc3OC)noc2cc1Nc1cc[nH]n1 [Example 26, 2-methoxy-N-{5-methoxy-6-[(1H-pyrazol-3-yl)amino]-1,2-benzoxazol-3-yl}-4-methyl-5-(propan-2-yl)benzene-1-sulfonamide]",Ki,KAT5 Full length enzyme,189 nM
same,Ki,KAT6A Full length enzyme,0.6 nM
same,Ki,[1],206 nM
same,Ki,KAT8 Full length enzyme,154 nM
same,Ki,[2],71.5 nM
same,Ki,[3],14.7 nM
"COc1cc2c(NS(=O)(=O)c3ccc(Cl)cc3OC)noc2cc1Nc1cc[nH]n1 [Example 27, 4-chloro-2-methoxy-N-{5-methoxy-6-[(1H-pyrazol-3-yl)amino]-1,2-benzoxazol-3-yl}benzene-1-sulfonamide]",Ki,KAT5 Full length enzyme,390 nM
same,Ki,KAT6A Full length enzyme,1.3 nM
same,Ki,[1],220 nM
same,Ki,KAT8 Full length enzyme,893 nM
same,Ki,[2],124 nM
same,Ki,[3],74.7 nM
"CCOc1ccccc1S(=O)(=O)Nc1noc2cc(Nc3cc[nH]n3)c(OC)cc12 [Example 28, 2-ethoxy-N-{5-methoxy-6-[(1H-pyrazol-3-yl)amino]-1,2-benzoxazol-3-yl}benzene-1-sulfonamide]",Ki,KAT5 Full length enzyme,630 nM
same,Ki,KAT6A Full length enzyme,1.2 nM
same,Ki,[1],290 nM
same,Ki,KAT8 Full length enzyme,3110 nM
same,Ki,[2],141 nM
same,Ki,[3],97.1 nM
"CCOc1cc(C)ccc1S(=O)(=O)Nc1noc2cc(Nc3cc[nH]n3)c(OC)cc12 [Example 29, 2-ethoxy-N-{5-methoxy-6-[(1H-pyrazol-3-yl)amino]-1,2-benzoxazol-3-yl}-4-methylbenzene-1-sulfonamide]",Ki,KAT5 Full length enzyme,594 nM
same,Ki,KAT6A Full length enzyme,1 nM
same,Ki,[1],182 nM
same,Ki,KAT8 Full length enzyme,1380 nM
same,Ki,[2],49.1 nM
same,Ki,[3],40.5 nM
"COc1cc2c(NS(=O)(=O)c3c(OC)cccc3OCC(F)F)noc2cc1Nc1cc[nH]n1 [Example 31, 2-(2,2-difluoroethoxy)-6-methoxy-N-{5-methoxy-6-[(1H-pyrazol-3-yl)amino]-1,2-benzoxazol-3-yl}benzene-1-sulfonamide]",Ki,KAT5 Full length enzyme,977 nM
same,Ki,KAT6A Full length enzyme,0.8 nM
same,Ki,[1],325 nM
same,Ki,KAT8 Full length enzyme,781 nM
same,Ki,[2],104 nM
same,Ki,[3],79.9 nM
"COc1cc2c(NS(=O)(=O)c3c(OC)cccc3OC(C)C)noc2cc1Nc1cc[nH]n1 [Example 32, 2-methoxy-N-{5-methoxy-6-[(1H-pyrazol-3-yl)amino]-1,2-benzoxazol-3-yl}-6-[(propan-2-yl)oxy]benzene-1-sulfonamide]",Ki,KAT5 Full length enzyme,2740 nM
same,Ki,[1],361 nM
same,Ki,KAT8 Full length enzyme,> 16300 nM
same,Ki,[2],79.5 nM
same,Ki,[3],89.7 nM
"COc1cc2c(NS(=O)(=O)c3c(OC)cccc3OC)noc2cc1Nc1ncn(C)n1 [Example 35, 2,6-dimethoxy-N-{5-methoxy-6-[(1-methyl-1H-1,2,4-triazol-3-yl)amino]-1,2-benzoxazol-3-yl}benzene-1-sulfonamide]",Ki,KAT5 Full length enzyme,1760 nM
same,Ki,KAT6A Full length enzyme,3 nM
same,Ki,[1],527 nM
same,Ki,KAT8 Full length enzyme,9110 nM
same,Ki,[2],156 nM
same,Ki,[3],48.3 nM
"COc1cc2c(NS(=O)(=O)c3c(OC)cccc3OC)noc2cc1Nc1n[nH]c(C)n1 [Example 36, 2,6-dimethoxy-N-{5-methoxy-6-[(5-methyl-1H-1,2,4-triazol-3-yl)amino]-1,2-benzoxazol-3-yl}benzene-1-sulfonamide]",Ki,KAT5 Full length enzyme,1080 nM
same,Ki,KAT6A Full length enzyme,1 nM
same,Ki,[1],501 nM
same,Ki,KAT8 Full length enzyme,2990 nM
same,Ki,[2],106 nM
same,Ki,[3],93 nM
"CCn1ccc(Nc2cc3onc(NS(=O)(=O)c4c(OC)cccc4OC)c3cc2OC)n1 [Example 39, N-{6-[(1-ethyl-1H-pyrazol-3-yl)amino]-5-methoxy-1,2-benzoxazol-3-yl}-2,6-dimethoxybenzene-1-sulfonamide]",Ki,KAT5 Full length enzyme,1750 nM
same,Ki,KAT6A Full length enzyme,6.1 nM
same,Ki,[1],175 nM
same,Ki,KAT8 Full length enzyme,> 32600 nM
same,Ki,[2],98.2 nM
same,Ki,[3],75.3 nM
"CCc1nc(Nc2cc3onc(NS(=O)(=O)c4c(OC)cccc4OC)c3cc2OC)n[nH]1 [Example 40, N-{6-[(5-ethyl-1H-1,2,4-triazol-3-yl)amino]-5-methoxy-1,2-benzoxazol-3-yl}-2,6-dimethoxybenzene-1-sulfonamide]",Ki,KAT5 Full length enzyme,4600 nM
same,Ki,KAT6A Full length enzyme,3.1 nM
same,Ki,[1],526 nM
same,Ki,KAT8 Full length enzyme,> 16300 nM
same,Ki,[2],156 nM
same,Ki,[3],49.1 nM
"COC(=O)c1cc(Nc2cc3onc(NS(=O)(=O)c4c(OC)cccc4OC)c3cc2OC)[nH]n1 [Example 55, methyl 5-({3-[(2,6-dimethoxybenzene-1-sulfonyl)amino]-5-methoxy-1,2-benzoxazol-6-yl}amino)-1H-pyrazole-3-carboxylate]",Ki,KAT6A Full length enzyme,2.4 nM
same,Ki,[1],663 nM
same,Ki,[2],147 nM
same,Ki,[3],199 nM
"COc1cc2c(NS(=O)(=O)c3c(OC)cc(-c4nccc(CN(C)C)n4)cc3OC)noc2cc1Nc1cc(C2CC2)n[nH]1 [Example 222, N-{6-[(3-cyclopropyl-1 H-pyrazol-5-yl)amino]-5-methoxy-1,2-benzoxazol-3-yl}-4-{4-[(dimethylamino)methyl]pyrimidin-2-yl}-2,6-dimethoxybenzene-1-sulfonamide]",Ki,KAT5 Full length enzyme,27.9 nM
same,Ki,KAT6A Full length enzyme,0.5 nM
same,Ki,[1],4.5 nM
same,Ki,KAT8 Full length enzyme,958 nM
same,Ki,[3],4 nM
"COc1cc2c(NS(=O)(=O)c3c(OC)cc(-c4ncc(N5CCN(C)CC5)cn4)cc3OC)noc2cc1Nc1cc(C2CC2)n[nH]1 [Example 226, N-{6-[(3-cyclopropyl-1 H-pyrazol-5-yl)amino]-5-methoxy-1,2-benzoxazol-3-yl}-2,6-dimethoxy-4-[5-(4-methylpiperazin-1-yl)pyrimidin-2-yl]benzene-1-sulfonamide]",Ki,KAT5 Full length enzyme,11.6 nM
same,Ki,KAT6A Full length enzyme,0.3 nM
same,Ki,[1],3 nM
same,Ki,KAT8 Full length enzyme,572 nM
same,Ki,[3],2.4 nM
